The text below walks through data of patent US20210115040A1, “OGA INHIBITOR COMPOUNDS” (Janssen Pharmaceutica NV, priority 2018, published 2021).

The target of test [1] is T1, recombinant human Meningioma Expressed Antigen 5 (MGEA5), also referred to as O-GlcNAcase (OGA) (Homo sapiens, UniProt O60502).
T1 construct: Full length OGA enzyme was purchased at OriGene (cat #TP322411); purchased OriGene TP322411
T1 sequence (O60502 1-916): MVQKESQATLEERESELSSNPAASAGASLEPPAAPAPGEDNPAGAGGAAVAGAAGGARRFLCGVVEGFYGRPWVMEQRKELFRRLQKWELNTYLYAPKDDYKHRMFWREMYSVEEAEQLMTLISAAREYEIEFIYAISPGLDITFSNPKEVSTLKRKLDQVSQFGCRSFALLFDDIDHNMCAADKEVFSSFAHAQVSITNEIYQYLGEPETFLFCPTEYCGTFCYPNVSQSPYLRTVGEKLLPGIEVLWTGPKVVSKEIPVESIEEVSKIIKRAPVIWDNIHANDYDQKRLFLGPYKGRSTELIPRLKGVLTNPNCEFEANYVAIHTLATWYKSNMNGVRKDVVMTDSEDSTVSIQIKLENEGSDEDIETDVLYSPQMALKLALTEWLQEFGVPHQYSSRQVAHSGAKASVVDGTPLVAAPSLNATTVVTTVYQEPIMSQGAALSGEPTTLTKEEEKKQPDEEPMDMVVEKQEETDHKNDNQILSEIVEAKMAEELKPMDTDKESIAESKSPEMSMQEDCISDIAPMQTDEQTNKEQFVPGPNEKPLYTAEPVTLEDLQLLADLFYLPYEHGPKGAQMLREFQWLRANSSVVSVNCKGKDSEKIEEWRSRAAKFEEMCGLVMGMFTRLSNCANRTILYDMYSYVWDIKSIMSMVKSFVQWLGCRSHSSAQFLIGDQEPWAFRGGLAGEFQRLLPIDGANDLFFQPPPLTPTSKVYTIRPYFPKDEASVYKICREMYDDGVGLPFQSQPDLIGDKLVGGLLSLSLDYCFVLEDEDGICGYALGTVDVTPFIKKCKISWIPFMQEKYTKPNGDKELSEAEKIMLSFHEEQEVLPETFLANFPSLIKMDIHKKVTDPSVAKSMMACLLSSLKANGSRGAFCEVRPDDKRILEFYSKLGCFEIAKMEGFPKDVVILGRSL
Briefly: OGA biochemical assay (inhibition of FM-GlcNAc hydrolysis, fluorescence). As to conditions: FM-GlcNAc substrate; for IC50: 6 h at room temperature, read-out: Enzymatic hOGA, pIC50 (converted); for Emax: read-out: Enzymatic Emax (%). Summed up: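 Full-length OGA (2 nM) pre-incubated 60 min at room temperature with compound, then FM-GlcNAc (100 uM final) hydrolysed 6 h at room temperature in 200 mM citrate/phosphate pH 7.2 with 0.005% Tween-20. Stopped with carbonate pH 11.0; fluorescein read at ex 485/em 538 nm. IC50 and Hill coefficient from curve fit between no-inhibitor and saturating-standard controls.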

The target of the next test is T2, OGA (Homo sapiens, UniProt O60502).
T2 construct: HEK293 cells inducible for P301L mutant human Tau (isoform 2N4R) were established at Janssen; endogenous in cells; host or cells: HEK293 cells inducible for P301L mutant human Tau (2N4R)
T2 sequence (O60502 1-916): T1 sequence (O60502 1-916)
The test is described as follows: OGA cellular assay (ICC detection of O-GlcNAcylated proteins in HEK293 cells inducible for P301L mutant human Tau). As to conditions: for Emax: HEK293, HEK293 cells inducible for P301L mutant human Tau; for Emax / Cellular Emax (%): maximum = Thiamet G 200 uM; for EC50 / Cellular Emax (%): HEK293 cells inducible for P301L mutant human Tau; for EC50: 6 hours incubation, read-out: Cellular hOGA, pEC50 (converted). Format: cell-based. Here is the method:
HEK293 cells inducible for P301L mutant human Tau (isoform 2N4R) were established at Janssen. Thiamet-G was used for both plate validation (high control) and as reference compound (reference EC50 assay validation). OGA inhibition is evaluated through the immunocytochemical (ICC) detection of O-GlcNAcylated proteins by the use of a monoclonal antibody (CTD110.6; Cell Signaling, #9875) detecting 0-GlcNAcylated residues as previously described (Dorfmueller et al. 2010 Chemistry & biology, 17:1250). Inhibition of OGA will result in an increase of O-GlcNAcylated protein levels resulting in an increased signal in the experiment. Cell nuclei are stained with Hoechst to give a cell culture quality control and a rough estimate of immediate compounds toxicity, if any. ICC pictures are imaged with a Perkin Elmer Opera Phenix plate microscope and quantified with the provided software Perkin Elmer Harmony 4.1.
Cells were propagated in DMEM high Glucose (Sigma, #D5796) following standard procedures. 2 days before the cell assay cells are split, counted and seeded in Poly-D-Lysine (PDL) coated 96-wells (Greiner, #655946) plate at a cell density of 12,000 cells per cm^2 (4,000 cells per well) in 100 μl of Assay Medium (Low Glucose medium is used to reduce basal levels of GlcNAcylation) (Park et al. 2014 The Journal of biological chemistry 289:13519). At the day of compound test medium from assay plates was removed and replenished with 90 μl of fresh Assay Medium. 10 μl of compounds at a 10fold final concentration were added to the wells. Plates were centrifuged shortly before incubation in the cell incubator for 6 hours. DMSO concentration was set to 0.2%. Medium is discarded by applying vacuum. For staining of cells medium was removed and cells washed once with 100 μl D-PBS (Sigma, #D8537). From next step onwards unless other stated assay volume was always 50 μl and incubation was performed without agitation and at room temperature. Cells were fixed in 50 μl of a 4% paraformaldehyde (PFA, Alpha aesar, #043368) PBS solution for 15 minutes at room temperature. […] Before analysis samples were washed 2 times manually for 5 minutes in ICC base buffer.
Imaging is performed using Perkin Elmer Phenix Opera using a water 20× objective and recording 9 fields per well. Intensity readout at 488 nm is used as a measure of O-GlcNAcylation level of total proteins in wells. To assess potential toxicity of compounds nuclei were counted using the Hoechst staining. IC50-values are calculated using parametric non-linear regression model fitting. As a maximum inhibition Thiamet G at a 200 uM concentration is present on each plate. In addition, a concentration response of Thiamet G is calculated on each plate.

As a reminder, the Emax is the maximal effect, on the per cent scale that the assay sets. As for `Cc1cc(OC[C@@H]2CCN(C(C)c3ccc4sc(C)nc4n3)C2)cc(C)n1` (mixture of isomers) [Compound 47], in test [1], the IC50 is 398 nM. Besides, in test [1] (maximal effect), the Emax is 99%. Also, at OGA, the Emax came out at 11% and the EC50 is above 1000 nM.

`Cc1cc([C@H]2CCCN([C@@H](C)c3nc4nc(C)sc4cc3F)C2)cc(C)n1` (single isomer, unassigned) [Compound 87]: in test [1], the IC50 was 2.51 nM. Further, the Emax was found to be 99% in test [1] (maximal effect) and 79% on OGA. Also, the EC50 at OGA was 3.16 nM.

As to `Cc1cc(OC[C@H]2CCCN(C(C)c3ccc4sc(C)nc4n3)C2)nc(C)n1` (mixture of isomers) [Compound 49ab], the IC50 in test [1] is 12.6 nM. In addition, the Emax in test [1] (maximal effect) was 100%. Also, at OGA, the Emax is 68% and the EC50 was 100 nM.

For the molecule `COc1cc(C[C@@H]2CCN(C(C)c3ccc4sc(C)nc4n3)C2)cc(C)n1` (single isomer, unassigned) [Compound 97], the IC50 in test [1] was 6310 nM. Also, the Emax was 56% in test [1] (maximal effect) and -2% at OGA. Further, at OGA, the EC50 was above 1000 nM.

On to `Cc1cc(OC[C@H]2CCCN(C(C)c3cc4nc(C)sc4cc3F)C2)cc(C)n1` (stereo partly shown) [Compound 98], for which, in test [1], the IC50 was 2.51 nM. The Emax in test [1] (maximal effect) was found to be 102%; at OGA, 60%. Also, on OGA, the EC50 was 12.6 nM.

As for `Cc1cc(CO[C@H]2CCCN(C(C)c3ccc4sc(C)nc4n3)C2)cc(C)n1` (single isomer, unassigned) [Compound 67], the IC50 in test [1] was 501 nM. The Emax in test [1] (maximal effect) came to 94%. In addition, on OGA, the Emax was 5% and the EC50 is above 1000 nM.

`COc1cc(NC[C@H]2CCCN(C(C)c3ccc4sc(C)nc4n3)C2)cc(C)n1` (stereo partly shown) [Compound 109]: the IC50 in test [1] was 6.31 nM. Moreover, the Emax was 100% in test [1] (maximal effect) and 89% on OGA. Moreover, the EC50 at OGA was 10 nM.

As to `Cc1cc(C2CCCN(C(C)c3ccc4sc(C)nc4n3)C2)c(F)c(C)n1` (single isomer, unassigned) [Compound 78], in test [1], the IC50 is 10 nM. The “Enzymatic Emax (%)” value in test [1] (maximal effect) is reported as 93%. Also, on OGA, the EC50 was 79.4 nM and the “Cellular Emax (%)” value is on record as 80%.

As to `Cc1cc(C[C@H]2CCCN(C(C)c3cnc4c(c3)nc(C)n4C)C2)cc(C)n1` (mixture of isomers) [Compound 11], the IC50 in test [1] was 31.6 nM. Besides, the Emax in test [1] (maximal effect) was determined as 100%. Moreover, at OGA, the Emax was 64% and the EC50 is 631 nM.

In the case of `Cc1cc(CO[C@H]2CCCN(C(C)c3cc4nc(C)sc4cc3F)C2)cc(C)n1` (single isomer, unassigned) [Compound 100], the IC50 in test [1] was 1260 nM. Further, the Emax in test [1] (maximal effect) worked out at 92%. At OGA, the EC50 is above 1000 nM and the “Cellular Emax (%)” value is recorded as −6%.

Turning to `COc1cc(N[C@H]2CCCN(C(C)c3ccc4sc(C)nc4n3)C2)cc(C)n1` (stereo partly shown) [Compound 83], the IC50 in test [1] is 10 nM. The Emax in test [1] (maximal effect) is 96%; at OGA it was 78%. At OGA, the EC50 was 102 nM.

As for `Cc1cc(C[C@H]2CCCN([C@H](C)c3ccc4oc(C)nc4n3)C2)cc(C(F)(F)F)n1` [Compound 24a], the IC50 in test [1] was 7.94 nM. Besides, the Emax in test [1] (maximal effect) was 99%. Moreover, at OGA, the Emax stood at 81% and the EC50 is 39.8 nM.

Regarding `Cc1cc(C[C@@H]2CCN(C(C)c3nc4nc(C)sc4cc3F)C2)cc(C)n1` (single isomer, unassigned) [Compound 93], the IC50 in test [1] is 3.16 nM. In addition, the Emax in test [1] (maximal effect) was found to be 92%. Besides, at OGA, the EC50 was 39.8 nM and the “Cellular Emax (%)” value is recorded as 91%.

As for `Cc1cc([C@H]2CCCN([C@@H](C)c3ccc4sc(C)nc4n3)C2)cc(C)n1` (racemic) [Compound 76], the IC50 in test [1] was 5.01 nM. For the same molecule, in test [1] (maximal effect), the Emax amounted to 98%. In addition, at OGA, the Emax is 67% and the EC50 is 31.6 nM.

Take `COc1cc(C2CCCN(C(C)c3ccc4oc(C)nc4n3)C2)cc(C(F)(F)F)n1` (racemic) [Compound 20]: the IC50 in test [1] was 20 nM. The Emax in test [1] (maximal effect) is 101%; at OGA, 60%. Besides, the EC50 on OGA was 631 nM.

With `Cc1cc([C@H]2CCCN([C@H](C)c3nc4nc(C)sc4cc3F)C2)cc(C)n1` (single isomer, unassigned) [Compound 86], the IC50 in test [1] is 1580 nM. The Emax in test [1] (maximal effect) came to 95%; at OGA, 12%. On OGA, the EC50 was above 1000 nM.

Turning to `Cc1cc(C[C@@H]2CCN(C(C)c3nc4nc(C)sc4cc3F)C2)cc(C)n1` (mixture of isomers) [Compound 50], the IC50 in test [1] was 20 nM. In addition, in test [1] (maximal effect), the Emax stood at 102%. Besides, at OGA, the Emax was 77% and the EC50 is 200 nM.

Turning to `Cc1cc(C[C@H]2CCCN(Cc3ccc4sc(C)nc4n3)C2)cc(C)n1` (mixture of isomers) [Compound 52], the IC50 in test [1] is 63.1 nM. The Emax in test [1] (maximal effect) was determined as 103%. In addition, on OGA, the Emax was 70% and the EC50 is 501 nM.

Regarding `Cc1cc(OC[C@H]2CCCN(C(C)c3ccc4sc(C)nc4n3)C2)cc(C)n1` (mixture of isomers) [Compound 46ab], the IC50 in test [1] is 5.01 nM. Further, the Emax in test [1] (maximal effect) was determined as 101%. At OGA, the Emax came to 85% and the EC50 is 15.8 nM.

Consider `Cc1cc(C[C@H]2CCCN([C@H](C)c3ccc4oc(C)nc4n3)C2)cc(OC(F)(F)F)n1` [Compound 25a], for which the IC50 in test [1] is 3.98 nM. The Emax in test [1] (maximal effect) stood at 101%. Also, on OGA, the Emax was determined as 85% and the EC50 is 50.1 nM.

For the molecule `Cc1cc(CN[C@H]2CCCN(C(C)c3ccc4sc(C)nc4n3)C2)cc(C)n1` (stereo partly shown) [Compound 84], the IC50 in test [1] is 25.1 nM. The Emax in test [1] (maximal effect) is 98%. For the same molecule, on OGA, the Emax was 66% and the EC50 is 501 nM.

In the case of `Cc1cc([C@H]2CCCN([C@H](C)c3ccc4sc(C)nc4n3)C2)nc(C)n1` (racemic) [Compound 70], the IC50 in test [1] was 63.1 nM. The Emax in test [1] (maximal effect) turned out to be 98%. For the same molecule, on OGA, the Emax stood at 55% and the EC50 was 794 nM.
